Results from patent US20030134859A1 (SANKYO COMPANY, LIMITED, priority 2000, published 2003).

Columns and labels:
[1] = test system: Rat white adipocytes; experiment: Stimulation of differentiation of the adipocytes (Oil Red O); type: cell-based; conditions: 100 nM test compound, 5 days, Oil Red O ABS550, control = 100%, blank = 0%, Table 7; for activity at 0.1 µM: Rattus norvegicus, Adipocyte, 120 h, read-out: Rate of Differentiation (%)
Summary of the method: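 Rat white adipocytes, 5,000 cells/well, cultured 5 days in differentiation-inducing medium with test compound at final 100 nM (0.1% DMSO). Cells fixed, stained with Oil Red O, dye extracted in DMSO and read at 550 nm; differentiation rate expressed relative to vehicle control (100%) and cell-free blank (0%).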

[2] = test system: TNF-α production; experiment: Inhibitory activity against cytokine (TNF-α) production in LPS-stimulated RAW264.7 cells; type: cell-based, mouse; conditions: Mus musculus, RAW264.7, 15 h, 1 μM test compound, LPS 10 ng/mL
Summary of the method: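 Mouse RAW264.7 macrophages (5,000 cells/well) stimulated with 10 ng/mL LPS (final) and treated with test compound at 1 μM final for 15 h at 37 °C. Supernatant mouse TNF-α measured by ELISA; % inhibition = 100−(A−B)/(C−B)×100, using unstimulated and LPS-only controls.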

[3] = test system: human colon cancer cells COL-2-JCK; experiment: Inhibition of colony forming activity in human colon cancer cells; type: cell-based; conditions: 1 μM test compound, 10 days, sum of colony areas vs control; for inhibition at 1 µM: Homo sapiens, 240 h, read-out: Inhibition Rate (%) against the colony forming activity
Procedure: For the medium to culture the human colon cancer cells, D-MEM/F-12 medium containing inactivated bovine fetal serum at a concentration of 10% (GIBCO) was used. The human colon cancer cells COL-2-JCK (purchased from Institute for Experimental Animals) grown in mass formation in a plastic dish for the cell culture with an inner diameter of 100 mm were stripped off from the dish by using EDTA (ethylenediaminetetraacetic acid) and 0.05% trypsin solution. Then, a cell dilution solution was prepared at a concentration of 100 cells/mL solution which was diluted with the medium (D-MEM/F-12).
Three (3) mL of the cell solution were inoculated in each well of a 6-well plastic plate (300 cells/well). The test compound that was dissolved in DMSO solution so as to be a final concentration of 1 μM of the test compound and that of DMSO solution of 0.1% was added to each well. DMSO solution alone was added into the well for the control so as to be a final concentration of 0.1%.
The cells in each well were cultured for 10 days at 37° C. in the presence of 5% CO2. After the culturing was finalised, each well was washed once with Dulbecco-phosphate-buffer-saline solution (bivalent anion). Then, 1.5 ml of neutral buffered formalin solution containing 0.02% crystal violet was added to each well and the plate was kept stationary for 5 min for fixation and staining the cells. After fixation and staining, the cells were washed with water and were air-dried. Then the sum of the colony area (mm^2) of the stained cancer cells was calculated by using an image analyzer PCA-11 (SystemScience). From the calculated values, the inhibition rate (%) of the compound against the colony forming activity was obtained based on the following equation.
Inhibition Rate (%) against the colony forming activity=(1−A/B)×100
A: Sum of Colony Areas in the Group Treated with 1 μM of the Test Compound
B: Sum of Colony Areas in the Control Group

Molecule | activity at 0.1 µM [1] [%] | inhibition at 1 µM [2] [%] | inhibition at 1 µM [3] [%] | Rate of Differentiation (%) [1] [%] | Inhibition Rate (%) against the colony forming activity [3] [%]
O=C(Nc1ccc(-c2ccccc2)cc1)c1cc([N+](=O)[O-])ccc1Cl [Example 2, N-(4-Phenylphenyl)-(2-chloro-5-nitrophenyl)carboxamide] | 127 | 24.5 | 8 | – | –
Cc1cnc(NC(=O)c2cc([N+](=O)[O-])ccc2Cl)s1 [Example 4, N-(5-Methylthiazol-2-yl)-(2-chloro-5-nitrophenyl)carboxamide] | 128 | 18.5 | 62 | – | –
O=C(Nc1cccc(-c2ccccc2)c1)c1cc([N+](=O)[O-])ccc1Cl [Example 5, N-(3-Phenylphenyl)-(2-chloro-5-nitrophenyl)carboxamide] | – | – | 26 | – | –
COc1ccc(NC(=O)c2cc([N+](=O)[O-])ccc2Cl)cc1-c1ccccc1 [Example 6, N-(4-Methoxy-3-phenyl)phenyl-(2-chloro-5-nitrophenyl)carboxamide] | – | – | 22 | – | –
O=C(Nc1ccccc1-c1ccccc1)c1cc([N+](=O)[O-])ccc1Cl [Example 7, N-(2-Phenylphenyl)-(2-chloro-5-nitrophenyl)carboxamide] | 120 | – | 24 | – | –
CCCCCc1ccc(NC(=O)c2cc([N+](=O)[O-])ccc2Cl)cc1 [Example 16, N-(4-Pentylphenyl)-(2-chloro-5-nitrophenyl)carboxamide] | 136 | 19 | 48 | – | –
N#Cc1ccc(NC(=O)c2cc([N+](=O)[O-])ccc2Cl)cc1 [Example 20, N-(4-Cyanophenyl)-(2-chloro-5-nitrophenyl)carboxamide] | – | – | 37 | – | –
CC(C)(C)c1cc(NC(=O)c2cc([N+](=O)[O-])ccc2Cl)cc(C(C)(C)C)c1O [Example 29, N-(3,5-Di-t-butyl-4-hydroxyphenyl)-(2-chloro-5-nitrophenyl)carboxamide] | 111 | 22.9 | 41 | – | –
O=C(Nc1cccc(NS(=O)(=O)c2ccccc2)c1)c1cc([N+](=O)[O-])ccc1Cl [Example 30, N-(3-Benzensulfonylaminophenyl)-(2-chloro-5-nitrophenyl)carboxamide] | 139 | – | 42 | – | –
O=C(Nc1nc(-c2ccccc2)cs1)c1cc([N+](=O)[O-])ccc1Cl [Example 35, N-(4-Phenylthiazol-2-yl)-(2-chloro-5-nitrophenyl)carboxamide] | 122 | – | 15 | – | –
O=C(Nc1nc(-c2cccnc2)cs1)c1cc([N+](=O)[O-])ccc1Cl [Example 37, N-[4-(3-Pyridyl)thiazol-2-yl)-(2-chloro-5-nitrophenyl)carboxamide] | 114 | 16 | 52 | – | –
O=C(Nc1nc(-c2ccccn2)cs1)c1cc([N+](=O)[O-])ccc1Cl [Example 38, N-[4-(2-Pyridyl)thiazol-2-yl)-(2-chloro-5-nitrophenyl)carboxamide] | 137 | – | 99.9 | – | –
Cc1ccccc1-c1csc(NC(=O)c2cc([N+](=O)[O-])ccc2Cl)n1 [Example 39, N-[4-(2-Methylphenyl)thiazol-2-yl]-(2-chloro-5-nitrophenyl)carboxamide] | – | 29.8 | 48 | – | –
Cc1cccc(-c2csc(NC(=O)c3cc([N+](=O)[O-])ccc3Cl)n2)c1 [Example 40, N-[4-(3-Methylphenyl)thiazol-2-yl)-(2-chloro-5-nitrophenyl)carboxamide] | 122 | 27.1 | 35 | – | –
O=C(Nc1nc(-c2cccc3ccccc23)cs1)c1cc([N+](=O)[O-])ccc1Cl [Example 41, N-[4-(1-Naphthyl)thiazol-2-yl]-(2-chloro-5-nitrophenyl)carboxamide] | 118 | 30 | 55 | – | –
CCc1ccc(-c2csc(NC(=O)c3cc([N+](=O)[O-])ccc3Cl)n2)cc1 [Example 44, N-[4-(4-Ethylphenyl)thiazol-2-yl]-(2-chloro-5-nitrophenyl)carboxamide] | – | 18 | 35 | – | –
Cc1nc(NC(=O)c2cc([N+](=O)[O-])ccc2Cl)sc1C [Example 47] | 141 | 16.7 | 18 | – | –
Cc1cccc(NC(=O)c2cc([N+](=O)[O-])ccc2Cl)n1 [Example 51, N-(6-Methylpyridin-2-yl)-(2-chloro-5-nitrophenyl)carboxamide] | 129 | – | 15 | – | –
Cc1ccc(NC(=O)c2cc([N+](=O)[O-])ccc2Cl)nc1 [Example 52, N-(5-Methylpyridin-2-yl)-(2-chloro-5-nitrophenyl)carboxamide] | 133 | 16.2 | 17 | – | –
O=C(Nc1cccc2cccnc12)c1cc([N+](=O)[O-])ccc1Cl [Example 57, N-(8-Quinolinyl)-(2-chloro-5-nitrophenyl)carboxamide] | – | – | 5 | – | –
O=C(Nc1ccc(S(=O)(=O)Nc2nccs2)cc1)c1cc([N+](=O)[O-])ccc1Cl [Example 96, N-[4-(Thiazol-2-yl)aminosulfonyl]phenyl-(2-chloro-5-nitrophenyl)carboxamide] | 123 | – | 17 | – | –
Cc1cc(NS(=O)(=O)c2ccc(NC(=O)c3cc([N+](=O)[O-])ccc3Cl)cc2)no1 [Example 99] | – | – | – | 119.0 | 32.0
O=C(Nc1ccc(S(=O)(=O)Nc2ccc(Cl)nn2)cc1)c1cc([N+](=O)[O-])ccc1Cl [Example 102, N-[4-[(6-Chloropyridazin-3-yl)aminosulfonyl]phenyl]-(2-chloro-5-nitrophenyl)carboxamide] | 114 | – | 26 | – | –
CC(C)(C)c1cc(C(=O)Nc2ccc(NC(=O)c3cc([N+](=O)[O-])ccc3Cl)cc2)cc(C(C)(C)C)c1O [Example 157, N-[4-[(3,5-di-tert-Butyl-4-hydroxybenzoyl)amino]phenyl]-(2-chloro-5-nitrophenyl)carboxamide] | 116 | 38.6 | – | – | –
CCCN(CC)c1ccc(NC(=O)c2cc([N+](=O)[O-])ccc2Cl)cc1 [Example 189, N-[4-(N-Ethyl-N-propylamino)phenyl]-(2-chloro-5-nitrophenyl)carboxamide] | 133 | 16.3 | – | – | –
N-[4-(Pyrrolidinylsulfonyl)phenyl]-(2-chloro-5-nitrophenyl)carboxamide [Example 152] | – | – | – | 112.7 | 24.0
